Measured values published in PMC2096529 (Purinergic Signalling, 2005).
pEC50: −log10 of the molar value.

How the values were obtained:
Assay in all cases: Fluo-3 calcium mobilization, FLIPR, […]1 cells
Format in all cases: cell-based
[1] = target: human P2Y1 receptor (Homo sapiens, UniProt P47900)
[2] = target: human P2Y2 receptor (Homo sapiens, UniProt P41231)
[3] = target: human P2Y6 receptor (Homo sapiens, UniProt Q15077)
[4] = target: human P2Y4 receptor (Homo sapiens, UniProt P51582)
human P2Y4 receptor, sequence (P51582 whole entry): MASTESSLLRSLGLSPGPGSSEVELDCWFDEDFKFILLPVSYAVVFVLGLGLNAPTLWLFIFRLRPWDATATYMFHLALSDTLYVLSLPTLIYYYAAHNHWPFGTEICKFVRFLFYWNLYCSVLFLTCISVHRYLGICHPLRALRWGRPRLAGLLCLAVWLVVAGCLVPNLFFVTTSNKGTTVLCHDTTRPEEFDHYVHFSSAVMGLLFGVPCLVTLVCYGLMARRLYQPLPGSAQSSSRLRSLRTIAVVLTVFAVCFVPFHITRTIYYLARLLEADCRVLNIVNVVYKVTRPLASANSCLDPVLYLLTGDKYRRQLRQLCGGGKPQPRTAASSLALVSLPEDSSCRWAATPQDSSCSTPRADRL

human P2Y6 receptor, sequence (Q15077 whole entry): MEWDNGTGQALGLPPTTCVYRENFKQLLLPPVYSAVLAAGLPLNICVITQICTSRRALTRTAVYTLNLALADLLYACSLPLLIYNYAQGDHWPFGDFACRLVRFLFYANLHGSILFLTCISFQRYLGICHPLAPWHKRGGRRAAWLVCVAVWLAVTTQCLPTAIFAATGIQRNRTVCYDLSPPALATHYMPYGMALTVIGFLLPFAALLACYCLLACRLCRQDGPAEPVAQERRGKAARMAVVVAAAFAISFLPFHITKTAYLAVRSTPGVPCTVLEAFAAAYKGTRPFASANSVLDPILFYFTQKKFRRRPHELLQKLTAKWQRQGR
human P2Y1 receptor, sequence (P47900 whole entry): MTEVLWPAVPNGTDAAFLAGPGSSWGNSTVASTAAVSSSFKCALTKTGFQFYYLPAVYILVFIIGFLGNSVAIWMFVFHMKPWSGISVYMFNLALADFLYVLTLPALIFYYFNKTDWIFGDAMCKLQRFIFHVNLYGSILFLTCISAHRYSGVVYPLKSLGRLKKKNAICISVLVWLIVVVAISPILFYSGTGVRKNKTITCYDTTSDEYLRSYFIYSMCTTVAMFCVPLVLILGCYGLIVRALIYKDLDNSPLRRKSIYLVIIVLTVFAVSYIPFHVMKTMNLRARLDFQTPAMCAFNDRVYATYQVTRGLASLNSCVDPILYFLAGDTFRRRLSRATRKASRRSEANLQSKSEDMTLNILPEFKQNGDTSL
human P2Y2 receptor, sequence (P41231 whole entry): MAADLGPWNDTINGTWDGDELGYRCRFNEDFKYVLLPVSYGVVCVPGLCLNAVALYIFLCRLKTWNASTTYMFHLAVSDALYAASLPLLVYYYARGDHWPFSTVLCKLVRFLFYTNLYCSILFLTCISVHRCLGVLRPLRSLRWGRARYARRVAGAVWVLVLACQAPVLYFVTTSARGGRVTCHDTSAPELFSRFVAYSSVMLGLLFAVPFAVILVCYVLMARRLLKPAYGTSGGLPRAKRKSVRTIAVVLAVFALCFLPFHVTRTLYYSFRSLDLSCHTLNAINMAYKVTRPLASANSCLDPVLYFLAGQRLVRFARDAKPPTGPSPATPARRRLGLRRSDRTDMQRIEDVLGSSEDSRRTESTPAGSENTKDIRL

Compound: Nc1ncnc2c1ncn2[C@@H]1O[C@H](CO[P@](=O)(O)O[P@](=O)(O)OC[C@H]2O[C@@H](n3cnc4c(N)ncnc43)[C@H](O)[C@@H]2O)[C@@H](O)[C@H]1O [compound 13, AP2A]
- pEC50 [1]: 5.37

Compound: Nc1ncnc2c1ncn2[C@@H]1O[C@H](COP(=O)(O)OP(=O)(O)OC[C@H]2O[C@@H](n3ccc(=O)[nH]c3=O)[C@H](O)[C@@H]2O)[C@@H](O)[C@H]1O [compound 14, AP2U]
- pEC50 [1]: 5.55
- pEC50 [2]: 4.63

Compound: Nc1ccn([C@@H]2O[C@H](COP(=O)(O)OP(=O)(O)OC[C@H]3O[C@@H](n4cnc5c(N)ncnc54)[C@H](O)[C@@H]3O)[C@@H](O)[C@H]2O)c(=O)n1 [compound 15, AP2C]
- pEC50 [3]: 4.73
- pEC50 [1]: 5.68
- pEC50 [2]: 5.16

Compound: Nc1nc2c(ncn2[C@@H]2O[C@H](COP(=O)(O)OP(=O)(O)OC[C@H]3O[C@@H](n4cnc5c(N)ncnc54)[C@H](O)[C@@H]3O)[C@@H](O)[C@H]2O)c(=O)[nH]1 [compound 16, AP2G]
- pEC50 [3]: 5.04
- pEC50 [4]: 5.82
- pEC50 [1]: 4.58
- pEC50 [2]: 5.89

Compound: Nc1nc2c(ncn2[C@H]2C[C@H](O)[C@@H](COP(=O)(O)OP(=O)(O)OC[C@H]3O[C@@H](n4cnc5c(N)ncnc54)[C@H](O)[C@@H]3O)O2)c(=O)[nH]1 [compound 17, AP2dG]
- pEC50 [3]: < 5.00
- pEC50 [1]: 4.61

Compound: Nc1nc2c(ncn2[C@H]2C[C@H](O)[C@@H](COP(=O)(O)OP(=O)(O)OC[C@H]3O[C@@H](n4ccc(=O)[nH]c4=O)[C@H](O)[C@@H]3O)O2)c(=O)[nH]1 [compound 20, UP2dG]
- pEC50 [3]: < 5.00
- pEC50 [1]: < 5.00
- pEC50 [2]: 4.54

Compound: O=c1[nH]c(=S)ccn1[C@@H]1O[C@H](COP(=O)(O)OP(=O)(O)OC[C@H]2O[C@@H](n3ccc(=S)[nH]c3=O)[C@H](O)[C@@H]2O)[C@@H](O)[C@H]1O [compound 23, 4-thioUP24-thioU]
- pEC50 [3]: 4.60
- pEC50 [4]: 4.47
- pEC50 [1]: < 5.00
- pEC50 [2]: 4.54

Compound: Nc1ncnc2c1ncn2[C@@H]1O[C@H](COP(=O)(O)OP(=O)(O)OP(=O)(O)OC[C@H]2O[C@@H](n3cnc4c(N)ncnc43)[C@H](O)[C@@H]2O)[C@@H](O)[C@H]1O [compound 25, AP3A]
- pEC50 [1]: 7.96
- pEC50 [2]: 4.55

Compound: Nc1ncnc2c1ncn2[C@@H]1O[C@H](COP(=O)(O)OP(=O)(O)OP(=O)(O)OC[C@H]2O[C@@H](n3ccc(=O)[nH]c3=O)[C@H](O)[C@@H]2O)[C@@H](O)[C@H]1O [compound 26, AP3U]
- pEC50 [3]: 6.77
- pEC50 [1]: 7.41
- pEC50 [2]: 5.70

Compound: Nc1ccn([C@@H]2O[C@H](COP(=O)(O)OP(=O)(O)OP(=O)(O)OC[C@H]3O[C@@H](n4cnc5c(N)ncnc54)[C@H](O)[C@@H]3O)[C@@H](O)[C@H]2O)c(=O)n1 [compound 27, AP3C]
- pEC50 [3]: < 5.00
- pEC50 [1]: 7.07
- pEC50 [2]: 5.22

Compound: Nc1nc2c(ncn2[C@@H]2O[C@H](COP(=O)(O)OP(=O)(O)OP(=O)(O)OC[C@H]3O[C@@H](n4cnc5c(N)ncnc54)[C@H](O)[C@@H]3O)[C@@H](O)[C@H]2O)c(=O)[nH]1 [compound 28, AP3G]
- pEC50 [3]: 5.82
- pEC50 [4]: 6.28
- pEC50 [1]: 6.92
- pEC50 [2]: 6.64

Compound: Nc1ncnc2c1ncn2[C@@H]1O[C@H](COP(=O)(O)OP(=O)(O)OP(=O)(O)OC[C@H]2O[C@@H](n3cnc4c(=O)[nH]cnc43)[C@H](O)[C@@H]2O)[C@@H](O)[C@H]1O [compound 29, AP3I]
- pEC50 [3]: 5.97
- pEC50 [4]: 5.59
- pEC50 [1]: 6.96
- pEC50 [2]: 5.92

Compound: Nc1ccn([C@@H]2O[C@H](COP(=O)(O)OP(=O)(O)OP(=O)(O)OC[C@H]3O[C@@H](n4cnc5c(=O)[nH]cnc54)[C@H](O)[C@@H]3O)[C@@H](O)[C@H]2O)c(=O)n1 [compound 35, CP3I]
- pEC50 [1]: < 5.00
- pEC50 [2]: < 5.00

Compound: Nc1ccn([C@@H]2O[C@H](COP(=O)(O)OP(=O)(O)OP(=O)(O)OC[C@H]3O[C@@H](n4ccc(=O)[nH]c4=O)C[C@@H]3O)[C@@H](O)[C@H]2O)c(=O)n1 [compound 36, CP3dU]
- pEC50 [3]: 6.09
- pEC50 [4]: 4.40
- pEC50 [1]: 4.77
- pEC50 [2]: 5.51

Compound: Nc1ncnc2c1ncn2[C@@H]1O[C@H](COP(=O)(O)OP(=O)(O)OP(=O)(O)OP(=O)(O)OC[C@H]2O[C@@H](n3cnc4c(N)ncnc43)[C@H](O)[C@@H]2O)[C@@H](O)[C@H]1O [compound 39, AP4A]
- pEC50 [1]: 6.49
- pEC50 [2]: 7.27

Compound: Nc1ncnc2c1ncn2[C@@H]1O[C@H](COP(=O)(O)OP(=O)(O)OP(=O)(O)OP(=O)(O)OC[C@H]2O[C@@H](n3ccc(=O)[nH]c3=O)[C@H](O)[C@@H]2O)[C@@H](O)[C@H]1O [compound 40, AP4U]
- pEC50 [4]: 5.84
- pEC50 [1]: 5.32
- pEC50 [2]: 6.46

Compound: Nc1ccn([C@@H]2O[C@H](COP(=O)(O)OP(=O)(O)OP(=O)(O)OP(=O)(O)OC[C@H]3O[C@@H](n4cnc5c(N)ncnc54)[C@H](O)[C@@H]3O)[C@@H](O)[C@H]2O)c(=O)n1 [compound 41, AP4C]
- pEC50 [1]: 6.12
- pEC50 [2]: 6.82

Compound: Nc1ncnc2c1ncn2[C@@H]1O[C@H](COP(=O)(O)OP(=O)(O)OP(=O)(O)OP(=O)(O)OC[C@H]2O[C@@H](n3cnc4c(=O)[nH]cnc43)[C@H](O)[C@@H]2O)[C@@H](O)[C@H]1O [compound 42, AP4I]
- pEC50 [1]: 6.26
- pEC50 [2]: 6.77

Compound: O=c1ccn([C@@H]2O[C@H](COP(=O)(O)OP(=O)(O)OP(=O)(O)OP(=O)(O)OC[C@H]3O[C@@H](n4ccc(=S)[nH]c4=O)[C@H](O)[C@@H]3O)[C@@H](O)[C@H]2O)c(=O)[nH]1 [compound 47, UP44-thioU]
- pEC50 [3]: 3.72
- pEC50 [4]: 6.77
- pEC50 [2]: 7.40

Compound: O=c1ccn([C@@H]2O[C@H](COP(=O)(O)OP(=O)(O)OP(=O)(O)OP(=O)(O)OC[C@H]3O[C@@H](n4cnc5c(=O)[nH]cnc54)C[C@@H]3O)[C@@H](O)[C@H]2O)c(=O)[nH]1 [compound 48, UP4dI]
- pEC50 [3]: < 5.00
- pEC50 [4]: 6.33
- pEC50 [2]: 6.64

Compound: Nc1nc2c(ncn2[C@H]2C[C@H](O)[C@@H](COP(=O)(O)OP(=O)(O)OP(=O)(O)OP(=O)(O)OC[C@H]3O[C@@H](n4ccc(=O)[nH]c4=O)[C@H](O)[C@@H]3O)O2)c(=O)[nH]1 [compound 49, UP4dG]
- pEC50 [3]: 5.77
- pEC50 [4]: 6.85
- pEC50 [2]: 7.22

Compound: Nc1ccn([C@@H]2O[C@H](COP(=O)(O)OP(=O)(O)OP(=O)(O)OP(=O)(O)OC[C@H]3O[C@@H](n4ccc(=O)[nH]c4=O)[C@H](O)[C@@H]3O)[C@@H](O)[C@@H]2O)c(=O)n1 [compound 50, UP4araC]
- pEC50 [3]: 5.48
- pEC50 [4]: 6.66
- pEC50 [1]: 5.21
- pEC50 [2]: 6.23

Compound: Nc1ncnc2c1ncn2[C@H]1C[C@H](O)[C@@H](COP(=O)(O)OP(=O)(O)OP(=O)(O)OP(=O)(O)OC[C@H]2O[C@@H](n3ccc(=O)[nH]c3=O)[C@H](O)[C@@H]2O)O1 [compound 52, UP4dA]
- pEC50 [3]: 5.38
- pEC50 [4]: 7.15
- pEC50 [1]: 5.46
- pEC50 [2]: 7.30

Compound: Nc1ccn([C@@H]2O[C@H](COP(=O)(O)OP(=O)(O)OP(=O)(O)OP(=O)(O)OC[C@H]3O[C@@H](n4ccc(=S)[nH]c4=O)[C@H](O)[C@@H]3O)[C@@H](O)[C@H]2O)c(=O)n1 [compound 55, CP44-thioU]
- pEC50 [3]: 5.28
- pEC50 [4]: 6.96
- pEC50 [2]: 7.44

Compound: O=c1[nH]c(=S)ccn1[C@@H]1O[C@H](COP(=O)(O)OP(=O)(O)OP(=O)(O)OP(=O)(O)OC[C@H]2O[C@@H](n3ccc(=S)[nH]c3=O)[C@H](O)[C@@H]2O)[C@@H](O)[C@H]1O [compound 56, 4-thioUP44-thioU]
- pEC50 [3]: 5.17
- pEC50 [4]: 7.05
- pEC50 [2]: 7.09
